Measured values from PubChem BioAssay AID1787 (Sanford-Burnham Center for Chemical Genomics, 2009).
Activity calls are given as the source filed them. No rule for the calls is given here.

System: MDA-MB-435 cytotoxicity with TRAIL, ATPlite luminescence, 24 h
Experiment: PubChem AID 1787

Structure (SMILES): CSc1nc(-c2ccc(C)cc2)nc(C(Cl)Cl)n1
- cytotoxicity (TRAIL alone cytotoxicity, dose or concentration not given here): 42%
- cytotoxicity with TRAIL (at 30 µM (top of the series)): 92 (inactive)
- cytotoxicity (compound alone cytotoxicity series, at 30 µM, stronger effect = higher value): 8%
